The kinase profiling compilation of Christmann-Franck et al. (2016)
Each block holds one molecule with its values, some of them ahead of it.

Legend:
Assay in all cases: radiometric filter-binding kinase assay
[1] = molecular target: WNK1 (human) (UniProt Q9H4A3)
[2] = molecular target: CDK9 CCNT1 (human) (UniProt P50750+O60563)
[3] = molecular target: DDR2 (human) (UniProt Q16832)
[4] = molecular target: MAPK7 (human) (UniProt Q13164)
[5] = molecular target: MAP4K3 (human) (UniProt Q8IVH8)
[6] = molecular target: TESK1 (human) (UniProt Q15569)
Sequence of TESK1 (human) (Q15569 whole entry, looked up): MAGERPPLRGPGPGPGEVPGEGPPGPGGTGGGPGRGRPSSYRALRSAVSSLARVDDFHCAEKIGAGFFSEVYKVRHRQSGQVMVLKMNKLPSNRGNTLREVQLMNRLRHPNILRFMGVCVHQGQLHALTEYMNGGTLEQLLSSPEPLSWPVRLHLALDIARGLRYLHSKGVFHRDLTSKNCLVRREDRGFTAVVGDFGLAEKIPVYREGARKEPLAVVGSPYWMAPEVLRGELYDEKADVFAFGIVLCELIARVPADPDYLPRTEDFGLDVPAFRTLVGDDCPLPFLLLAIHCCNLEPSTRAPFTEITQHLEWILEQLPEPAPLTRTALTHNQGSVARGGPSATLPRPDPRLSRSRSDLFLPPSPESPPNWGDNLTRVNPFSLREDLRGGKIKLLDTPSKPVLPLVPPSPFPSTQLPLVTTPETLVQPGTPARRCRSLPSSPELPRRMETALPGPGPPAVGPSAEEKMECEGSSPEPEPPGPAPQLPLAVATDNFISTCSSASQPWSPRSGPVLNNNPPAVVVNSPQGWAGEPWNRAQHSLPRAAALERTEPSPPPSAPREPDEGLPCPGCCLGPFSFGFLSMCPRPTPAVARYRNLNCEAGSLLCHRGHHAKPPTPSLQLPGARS

[7] = molecular target: SIK3 (human) (UniProt Q9Y2K2)
[8] = molecular target: MAP4K5 (human) (UniProt Q9Y4K4)
Sequence of MAP4K5 (human) (Q9Y4K4 whole entry, looked up): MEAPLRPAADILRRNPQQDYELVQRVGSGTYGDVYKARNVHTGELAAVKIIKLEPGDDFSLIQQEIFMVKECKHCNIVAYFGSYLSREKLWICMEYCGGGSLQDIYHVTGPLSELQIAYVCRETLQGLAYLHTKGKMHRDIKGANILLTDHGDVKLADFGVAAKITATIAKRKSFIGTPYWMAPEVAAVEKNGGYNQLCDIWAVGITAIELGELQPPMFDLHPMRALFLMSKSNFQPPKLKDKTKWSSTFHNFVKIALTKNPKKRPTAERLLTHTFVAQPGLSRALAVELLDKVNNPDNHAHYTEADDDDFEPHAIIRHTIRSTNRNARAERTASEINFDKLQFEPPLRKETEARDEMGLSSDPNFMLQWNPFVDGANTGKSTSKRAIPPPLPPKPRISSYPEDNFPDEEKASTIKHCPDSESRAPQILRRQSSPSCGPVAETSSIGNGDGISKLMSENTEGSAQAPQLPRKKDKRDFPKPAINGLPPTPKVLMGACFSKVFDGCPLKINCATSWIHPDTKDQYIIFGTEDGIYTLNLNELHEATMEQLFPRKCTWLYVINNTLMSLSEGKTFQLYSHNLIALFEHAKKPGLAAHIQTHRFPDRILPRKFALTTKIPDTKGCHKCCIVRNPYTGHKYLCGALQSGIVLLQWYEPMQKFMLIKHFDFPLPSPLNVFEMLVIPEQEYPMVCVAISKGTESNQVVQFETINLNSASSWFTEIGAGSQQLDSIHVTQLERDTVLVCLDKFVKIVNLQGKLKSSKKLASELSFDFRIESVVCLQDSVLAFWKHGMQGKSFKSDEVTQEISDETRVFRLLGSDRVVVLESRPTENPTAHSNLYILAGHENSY

[9] = molecular target: MYLK (human) (UniProt Q15746)
[10] = molecular target: CSNK1G2 (human) (UniProt P78368)
Sequence of CSNK1G2 (human) (P78368 whole entry, looked up): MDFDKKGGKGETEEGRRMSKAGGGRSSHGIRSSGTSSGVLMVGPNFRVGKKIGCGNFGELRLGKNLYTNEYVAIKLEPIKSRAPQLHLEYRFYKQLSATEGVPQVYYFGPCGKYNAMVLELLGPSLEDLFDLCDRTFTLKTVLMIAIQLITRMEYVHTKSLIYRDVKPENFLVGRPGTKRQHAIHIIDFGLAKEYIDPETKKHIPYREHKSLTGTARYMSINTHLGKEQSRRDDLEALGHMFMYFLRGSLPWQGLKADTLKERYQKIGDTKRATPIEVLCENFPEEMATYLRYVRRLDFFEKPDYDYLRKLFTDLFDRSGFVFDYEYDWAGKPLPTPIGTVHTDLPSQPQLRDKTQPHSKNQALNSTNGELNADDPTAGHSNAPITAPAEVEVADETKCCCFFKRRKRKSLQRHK

[11] = molecular target: TTBK2 (human) (UniProt Q6IQ55)
[12] = molecular target: ULK2 (human) (UniProt Q8IYT8)
[13] = molecular target: STK33 (human) (UniProt Q9BYT3)
[14] = molecular target: EIF2AK3 (human) (UniProt Q9NZJ5)
[15] = molecular target: TSSK1B (human) (UniProt Q9BXA7)
[16] = molecular target: ABL1 (human) (UniProt P00519)
[17] = molecular target: PTK6 (human) (UniProt Q13882)
[18] = molecular target: PRKCG (human) (UniProt P05129)
[19] = molecular target: STK24 (human) (UniProt Q9Y6E0)
[20] = molecular target: SIK2 (human) (UniProt Q9H0K1)
[21] = molecular target: TTBK1 (human) (UniProt Q5TCY1)
[22] = molecular target: TLK1 (human) (UniProt Q9UKI8)
[23] = molecular target: STK16 (human) (UniProt O75716)
[24] = molecular target: ZAP70 (human) (UniProt P43403)
[25] = molecular target: PDGFRA (human) (UniProt P16234)
[26] = molecular target: ULK1 (human) (UniProt O75385)
[27] = molecular target: IRAK1 (human) (UniProt P51617)
Sequence of IRAK1 (human) (P51617 whole entry, looked up): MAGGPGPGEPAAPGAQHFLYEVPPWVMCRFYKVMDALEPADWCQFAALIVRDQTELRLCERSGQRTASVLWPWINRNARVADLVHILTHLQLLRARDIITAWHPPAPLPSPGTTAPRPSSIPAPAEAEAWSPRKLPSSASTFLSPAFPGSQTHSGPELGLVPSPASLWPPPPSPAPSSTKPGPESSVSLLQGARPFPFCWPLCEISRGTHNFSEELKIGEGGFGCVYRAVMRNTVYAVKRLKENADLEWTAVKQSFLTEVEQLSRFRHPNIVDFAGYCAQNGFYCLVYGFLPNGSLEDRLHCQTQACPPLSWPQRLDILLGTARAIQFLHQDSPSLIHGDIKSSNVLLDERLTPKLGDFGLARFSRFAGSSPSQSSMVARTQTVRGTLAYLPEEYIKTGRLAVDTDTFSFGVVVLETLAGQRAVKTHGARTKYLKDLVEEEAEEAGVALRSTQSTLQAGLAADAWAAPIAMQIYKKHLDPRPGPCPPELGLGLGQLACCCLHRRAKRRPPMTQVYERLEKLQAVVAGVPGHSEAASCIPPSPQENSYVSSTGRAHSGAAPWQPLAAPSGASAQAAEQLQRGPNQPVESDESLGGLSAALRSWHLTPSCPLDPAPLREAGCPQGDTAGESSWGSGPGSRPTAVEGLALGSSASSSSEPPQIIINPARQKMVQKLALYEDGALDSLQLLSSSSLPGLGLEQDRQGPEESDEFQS

[28] = tested on: TGFBR1 (human), P36897 [T204D]
[29] = tested on: OXSR1 (human), O95747 [T185E]
[30] = molecular target: TEK (human) (UniProt Q02763)
[31] = molecular target: PRKAA1 PRKAB2 PRKAG1 (human) (UniProt O43741+Q13131+P54619)
Sequence of PRKAA1 PRKAB2 PRKAG1 (human) (O43741 whole entry, looked up): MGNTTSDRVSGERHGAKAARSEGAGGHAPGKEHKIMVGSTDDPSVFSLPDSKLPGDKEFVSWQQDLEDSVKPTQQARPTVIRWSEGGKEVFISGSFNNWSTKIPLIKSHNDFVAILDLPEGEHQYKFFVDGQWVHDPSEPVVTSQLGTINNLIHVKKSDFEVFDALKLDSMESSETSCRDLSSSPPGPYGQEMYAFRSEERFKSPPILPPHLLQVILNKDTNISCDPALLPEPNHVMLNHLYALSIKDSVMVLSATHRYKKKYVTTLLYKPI
Sequence of PRKAA1 PRKAB2 PRKAG1 (human) (P54619 whole entry, looked up): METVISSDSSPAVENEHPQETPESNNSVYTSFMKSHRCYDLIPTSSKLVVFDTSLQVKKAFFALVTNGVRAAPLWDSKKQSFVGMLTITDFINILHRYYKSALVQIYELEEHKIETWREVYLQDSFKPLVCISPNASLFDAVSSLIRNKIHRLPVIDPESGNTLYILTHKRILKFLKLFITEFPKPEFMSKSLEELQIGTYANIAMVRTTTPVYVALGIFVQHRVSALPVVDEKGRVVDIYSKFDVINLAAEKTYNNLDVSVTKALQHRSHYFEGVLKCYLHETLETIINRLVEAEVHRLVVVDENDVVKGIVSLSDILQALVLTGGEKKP
Sequence of PRKAA1 PRKAB2 PRKAG1 (human) (Q13131 whole entry, looked up): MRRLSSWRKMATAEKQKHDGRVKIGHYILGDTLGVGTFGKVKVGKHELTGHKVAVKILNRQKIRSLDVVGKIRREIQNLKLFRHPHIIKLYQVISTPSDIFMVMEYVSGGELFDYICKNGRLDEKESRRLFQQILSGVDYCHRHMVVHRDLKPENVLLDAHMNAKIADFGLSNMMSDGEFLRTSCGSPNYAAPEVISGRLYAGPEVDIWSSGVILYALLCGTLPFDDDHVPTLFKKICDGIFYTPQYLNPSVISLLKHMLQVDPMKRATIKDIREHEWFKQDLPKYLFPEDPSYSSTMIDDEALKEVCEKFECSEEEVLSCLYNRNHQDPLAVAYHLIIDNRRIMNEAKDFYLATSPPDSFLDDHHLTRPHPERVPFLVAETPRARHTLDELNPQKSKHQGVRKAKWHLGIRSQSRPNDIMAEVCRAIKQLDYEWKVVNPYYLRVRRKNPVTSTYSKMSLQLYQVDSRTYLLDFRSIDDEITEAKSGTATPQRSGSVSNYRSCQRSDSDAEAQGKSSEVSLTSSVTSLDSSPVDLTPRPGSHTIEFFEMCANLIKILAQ

[32] = molecular target: NEK7 (human) (UniProt Q8TDX7)
[33] = molecular target: AURKC (human) (UniProt Q9UQB9)
[34] = molecular target: CAMKK1 (human) (UniProt Q8N5S9)

Sequence of CDK9 CCNT1 (human) (O60563 whole entry, looked up): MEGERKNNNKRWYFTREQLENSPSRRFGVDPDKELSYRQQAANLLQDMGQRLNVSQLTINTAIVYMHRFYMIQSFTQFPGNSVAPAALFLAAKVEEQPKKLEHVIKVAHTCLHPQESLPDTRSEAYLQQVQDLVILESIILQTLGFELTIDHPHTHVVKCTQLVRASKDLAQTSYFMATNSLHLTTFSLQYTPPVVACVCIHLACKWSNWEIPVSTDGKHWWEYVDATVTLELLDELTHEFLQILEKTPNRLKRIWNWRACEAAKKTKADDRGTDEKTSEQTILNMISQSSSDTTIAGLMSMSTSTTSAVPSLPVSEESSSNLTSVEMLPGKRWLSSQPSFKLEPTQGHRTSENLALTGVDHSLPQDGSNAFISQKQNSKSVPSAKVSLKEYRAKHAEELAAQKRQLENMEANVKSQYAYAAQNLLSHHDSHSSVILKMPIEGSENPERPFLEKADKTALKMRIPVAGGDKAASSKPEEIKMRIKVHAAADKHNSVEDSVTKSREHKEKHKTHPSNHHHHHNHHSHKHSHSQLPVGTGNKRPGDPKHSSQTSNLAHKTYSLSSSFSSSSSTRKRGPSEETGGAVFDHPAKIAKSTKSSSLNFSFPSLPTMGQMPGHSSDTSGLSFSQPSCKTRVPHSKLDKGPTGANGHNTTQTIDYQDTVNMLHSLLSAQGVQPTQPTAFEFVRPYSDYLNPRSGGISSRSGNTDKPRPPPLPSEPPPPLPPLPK
Sequence of CDK9 CCNT1 (human) (P50750 whole entry, looked up): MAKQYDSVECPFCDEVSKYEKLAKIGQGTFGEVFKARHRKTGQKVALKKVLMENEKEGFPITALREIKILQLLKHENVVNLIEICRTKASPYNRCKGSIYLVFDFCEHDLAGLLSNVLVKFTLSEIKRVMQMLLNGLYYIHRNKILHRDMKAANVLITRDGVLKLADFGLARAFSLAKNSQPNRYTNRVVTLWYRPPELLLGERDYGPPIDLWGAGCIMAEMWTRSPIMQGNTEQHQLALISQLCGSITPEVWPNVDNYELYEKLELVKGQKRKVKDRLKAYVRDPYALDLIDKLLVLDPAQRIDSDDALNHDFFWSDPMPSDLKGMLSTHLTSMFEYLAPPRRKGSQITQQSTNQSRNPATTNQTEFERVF

residual activity ([1]; compound 0.1 µM): 91% | residual activity ([1]; compound 1.0 µM): 86% | residual activity ([2]; compound 0.01 µM): 61% | residual activity ([2]; compound 0.1 µM): 17% | residual activity ([2]; compound 1.0 µM): 15% | residual activity ([3]; compound 0.1 µM): 8% | residual activity ([3]; compound 1.0 µM): 3% | residual activity ([4]; compound 0.01 µM): 66% | residual activity ([4]; compound 0.1 µM): 24% | residual activity ([4]; compound 1.0 µM): 12% | residual activity ([5]; compound 0.01 µM): 3% | residual activity ([5]; compound 0.1 µM): 2% | residual activity ([5]; compound 1.0 µM): 1% | residual activity ([6]; compound 0.01 µM): 76% | residual activity ([6]; compound 0.1 µM): 19% | residual activity ([6]; compound 1.0 µM): 2% | residual activity ([7]; compound 0.01 µM): 31% | residual activity ([7]; compound 0.1 µM): 7% | residual activity ([7]; compound 1.0 µM): 2% | residual activity ([8]; compound 0.01 µM): 10% | residual activity ([8]; compound 0.1 µM): 7% | residual activity ([8]; compound 1.0 µM): 4% | residual activity ([9]; compound 0.01 µM): 48% | residual activity ([9]; compound 0.1 µM): 4% | residual activity ([9]; compound 1.0 µM): 1% | residual activity ([10]; compound 0.01 µM): 106% | residual activity ([10]; compound 0.1 µM): 97% | residual activity ([10]; compound 1.0 µM): 86% | residual activity ([11]; compound 0.01 µM): 107% | residual activity ([11]; compound 0.1 µM): 102% | residual activity ([11]; compound 1.0 µM): 90% | residual activity ([12]; compound 0.01 µM): 30% | residual activity ([12]; compound 0.1 µM): 5% | residual activity ([12]; compound 1.0 µM): 1% | residual activity ([13]; compound 0.01 µM): 44% | residual activity ([13]; compound 0.1 µM): 27% | residual activity ([13]; compound 1.0 µM): 23% | residual activity ([14]; compound 0.01 µM): 62% | residual activity ([14]; compound 0.1 µM): 59% | residual activity ([14]; compound 1.0 µM): 36% | residual activity ([15]; compound 0.01 µM): 13% | residual activity ([15]; compound 0.1 µM): 5% | residual activity ([15]; compound 1.0 µM): 4% | residual activity ([16]; compound 0.01 µM): 98% | residual activity ([16]; compound 0.1 µM): 82% | residual activity ([16]; compound 1.0 µM): 37% | residual activity ([17]; compound 0.01 µM): 28% | residual activity ([17]; compound 0.1 µM): 16% | residual activity ([17]; compound 1.0 µM): 4% | residual activity ([18]; compound 0.01 µM): 95% | residual activity ([18]; compound 0.1 µM): 51% | residual activity ([18]; compound 1.0 µM): 13% | residual activity ([19]; compound 0.01 µM): 97% | residual activity ([19]; compound 0.1 µM): 50% | residual activity ([19]; compound 1.0 µM): 6% | residual activity ([20]; compound 0.01 µM): 4% | residual activity ([20]; compound 0.1 µM): 0% | residual activity ([20]; compound 1.0 µM): 1% | residual activity ([21]; compound 0.01 µM): 101% | residual activity ([21]; compound 0.1 µM): 108% | residual activity ([21]; compound 1.0 µM): 99% | residual activity ([22]; compound 0.01 µM): 93% | residual activity ([22]; compound 0.1 µM): 39% | residual activity ([22]; compound 1.0 µM): 6% | residual activity ([23]; compound 0.01 µM): 102% | residual activity ([23]; compound 0.1 µM): 85% | residual activity ([23]; compound 1.0 µM): 69% | residual activity ([24]; compound 0.01 µM): 83% | residual activity ([24]; compound 0.1 µM): 16% | residual activity ([24]; compound 1.0 µM): 2% | residual activity ([25]; compound 0.01 µM): 54% | residual activity ([25]; compound 0.1 µM): 8% | residual activity ([25]; compound 1.0 µM): 2% | residual activity ([26]; compound 0.01 µM): 102% | residual activity ([26]; compound 0.1 µM): 43% | residual activity ([26]; compound 1.0 µM): 11% | residual activity ([27]; compound 0.01 µM): 15% | residual activity ([27]; compound 0.1 µM): 2% | residual activity ([27]; compound 1.0 µM): 3% | residual activity ([28]; compound 0.01 µM): 96% | residual activity ([28]; compound 0.1 µM): 74% | residual activity ([28]; compound 1.0 µM): 17% | residual activity ([29]; compound 0.01 µM): 75% | residual activity ([29]; compound 0.1 µM): 23% | residual activity ([29]; compound 1.0 µM): 7% | residual activity ([30]; compound 0.01 µM): 59% | residual activity ([30]; compound 0.1 µM): 41% | residual activity ([30]; compound 1.0 µM): 20% | residual activity ([31]; compound 0.01 µM): 4% | residual activity ([31]; compound 0.1 µM): 3% | residual activity ([31]; compound 1.0 µM): 1%
Compound: CNC(=O)C1[C@H]2O[C@@](C)([C@@H]1N)n1c3ccccc3c3c4c(c5c6ccccc6n2c5c31)C(=O)NC4 (stereo partly drawn)

residual activity ([9]; compound 0.1 µM): 15% | residual activity ([9]; compound 1.0 µM): 6% | residual activity ([9]; compound 10.0 µM): 3% | residual activity ([32]; compound 0.1 µM): 94% | residual activity ([32]; compound 1.0 µM): 84% | residual activity ([32]; compound 10.0 µM): 82% | residual activity ([33]; compound 0.1 µM): 48% | residual activity ([33]; compound 1.0 µM): 13% | residual activity ([33]; compound 10.0 µM): 7% | residual activity ([34]; compound 0.1 µM): 109% | residual activity ([34]; compound 1.0 µM): 97% | residual activity ([34]; compound 10.0 µM): 101%
Compound: COc1ccc2c(c1)c1c3c(c4c5ccccc5n(C)c4c1n2CC(O)CN(C)C)C(=O)NC3=O (stereo not drawn)

residual activity ([9]; compound 10.0 µM): 76% | residual activity ([9]; compound 50.0 µM): 39% | residual activity ([9]; compound 100.0 µM): 20% | residual activity ([32]; compound 50.0 µM): 102% | residual activity ([33]; compound 50.0 µM): 30%
Compound: N#Cc1c(O)c2c(-c3ccc(-c4ccccc4O)cc3)csc2[nH]c1=O
